The values below are quoted from earlier work in US5140036A, “1,3,5-trisubstituted-1,2,4-triazole compounds for treatment of circulatory disorders” (priority 1990, dated 1992).

One data set relates to angiotensin II. Conditions: series of binding experiments, functional assays and in vivo tests.
Data set [1] concerns angiotensin II at its receptors. The settings on record: commercially-available peptidic angiotensin II antagonists.

In the case of `CCCCc1nc(Cl)c(CC(=O)O)n1Cc1ccccc1[N+](=O)[O-]` [2-butyl-4-chloro-1-(2-nitrobenzyl)imidazole-5-acetic acid], in the data set with angiotensin II, the “angiotensin II antagonist activity” value was “specific competitive angiotensin II antagonist activity”.
For the compound `CCCCc1nc(Cl)c(CC(=O)O)n1Cc1ccccc1Cl` [2-n-butyl-4-chloro-1-(2-chlorobenzyl)imidazole-5-acetic acid], the “angiotensin II antagonist activity” value with angiotensin II was “specific competitive angiotensin II antagonist activity”.
For `CNCC(=O)N[C@@H](CCCN=C(N)N)C(=O)N[C@H](C(=O)N[C@@H](Cc1ccc(O)cc1)C(=O)N[C@H](C(=O)N[C@@H](Cc1cnc[nH]1)C(=O)N1CCC[C@H]1C(=O)N[C@@H](C)C(=O)O)C(C)C)C(C)C` [Saralasin], the residual agonist activity result in data set [1] was “significant residual agonist activity”.
